Data from US20090018111A1, “Novel Antimicrobial Medicament” (priority 2004, published 2009).
Like-named read-outs stand apart in the source and are kept apart here.

Assays:
Experiment in all cases: Sensitivity test (agar dilution)
S. epidermidis IAM1296 = format: cell-based, Staphylococcus epidermidis; settings: Staphylococcus epidermidis, S. epidermidis IAM1296
Description: (§1) The antibacterial activities were tested against various 18 bacteria (27 standard strains) which are representative bacteria caused clinically infectious disease (Staphylococcus aureus 3 strains, Staphylococcus epidermidis 1 strain, Micrococcus luteus 1 strain, Streptococcus pyogenes 1 strain, Enterococcus faecalis 1 strain, Enterococcus faecium 1 strain, Bacillus subtilis 1 strain, Escherichia coli 3 strains, Klebsiella pneumoniae 1 strain, Proteus mirabilis 1 strain, Proteus vulgaris 2 strains, Pseudomonas aeruginosa 3 strains, Serratia marcescens 2 strains, Enterobacter aerogenes 1 strain, Stenotrophomonas maltophilia 1 strain, Enterobacter cloacae 1 strain, Citrobacter freundii 1 strain, Moraxella catarrhalis 2 strains).
(§2) According to the standard method of Japan Chemotherapeutic Society (Chemotherapy, vol. […], p 76-79 (1981)) the test was carried out using the agar dilution method. After dissolving test samples in distilled water, agar medium containing the test samples was prepared in such a manner that the final concentration became twice serial dilution by pouring serially diluted combination drug solution or a single drug solution into agar medium. As agar medium was used Mueller Hinton Agar medium (MHA). Then, each strain was cultivated over night at 37° C. in an incubator and suspended in buffered saline solution with gelatin (BSG) in the concentration of about 10^6 CFU/ml. The suspension (about 5 μl) containing test strains was inoculated to the medium containing the test samples by Micro Planter.
(§3) When the sample is subjected to sensitivity test, this mixed solution was diluted by twice serial dilution method.
(§4) Furthermore, when the drug is solely used, each test sample was used as it is, and diluted by twice serial dilution method from the maximum concentration to the minimum concentration.
(§5) FIC index based on MIC value was calculated. […] Namely, when FIC index calculated by the following formula is equal or less than 1, the enhanced effect of the combination drug in said ratio is considered as positive. When FIC index is over 1, the enhanced effect of the combination drug in said ratio is considered as negative.
(§6) Formula of FIC index: FIC index=(MIC of Drug A in combination/MIC of Drug A alone)+(MIC of Drug B in combination/MIC of Drug B alone) N.C. in tables means being not calculated.

E. coli NIHJ JC-2 = format: cell-based, Escherichia coli; settings: Escherichia coli, E. coli NIHJ JC-2
Description: as §1, §2, §3, §4, §5, §6

E. coli ML1410 = format: cell-based, Escherichia coli; settings: Escherichia coli, E. coli ML1410
Description: as §1, §2, §3, §4, §5, §6

P. vurgalis OX-19 = format: cell-based, Proteus vulgaris; settings: Proteus vulgaris, P. vurgalis OX-19
Description: as §1, §2, §3, §4, §5, §6

P. vulgaris GN7919 = format: cell-based, Proteus vulgaris; settings: Proteus vulgaris, P. vulgaris GN7919
Description: as §1, §2, §3, §4, §5, §6

S. marcescens X 100 = format: cell-based, Serratia marcescens; settings: Serratia marcescens, S. marcescens X 100
Description: as §1, §2, §3, §4, §5, §6

S. marcescens GN6473 = format: cell-based, Serratia marcescens; settings: Serratia marcescens, S. marcescens GN6473
Description: as §1, §2, §3, §4, §5, §6

[1] = system: S. aureus SP-7928 (homo-MRSA); format: cell-based, Staphylococcus aureus; settings: Staphylococcus aureus, MRSA, S. aureus SP-7928 (homo-MRSA)
Description: as §1, §2, §3, §4, §5, §6

[2] = system: S. aureus MS94088 (hetero-MRSA); format: cell-based, Staphylococcus aureus; settings: Staphylococcus aureus, MRSA, S. aureus MS94088 (hetero-MRSA)
Description: as §1, §2, §3, §4, §5, §6

S. aureus 209P = format: cell-based, Staphylococcus aureus; settings: Staphylococcus aureus, 209P, S. aureus 209P
Description: as §1, §2, §3, §4, §5, §6

Str. pyogenes Cook = format: cell-based, Streptococcus pyogenes; settings: Streptococcus pyogenes, Str. pyogenes Cook
Description: as §1, §2, §3, §4, §5, §6

P. aeruginosa IFO3451 = format: cell-based, Pseudomonas aeruginosa; settings: Pseudomonas aeruginosa, P. aeruginosa IFO3451
Outline: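 Minimum inhibitory concentrations come from agar dilution in MHA, with single agents or combinations in twofold steps. Inocula: about 5 μl at about 10^6 CFU/ml. An FIC index of at most 1 marks a positive combination effect; above 1, negative.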

E. cloacae GN7471 = format: cell-based, Enterobacter cloacae; settings: Enterobacter cloacae, E. cloacae GN7471
Description: as §1, §2, §3, §4, §5, §6

[3] = IAM1296, drug alone, read-out: MIC alone
[4] = NIHJJC2, drug alone, read-out: MIC alone
[5] = ML1410, drug alone, read-out: MIC alone
[6] = OX19, drug alone, read-out: MIC alone
[7] = GN7919, drug alone, read-out: MIC alone
[8] = X100, drug alone, read-out: MIC alone
[9] = GN6473, drug alone, read-out: MIC alone
[10] = Concomitant (BIPM:SM = 1:1), read-out: MIC concomitant
[11] = drug alone, read-out: MIC alone
[12] = IFO3451, drug alone, read-out: MIC alone
[13] = GN7471, drug alone, read-out: MIC alone
[14] = Concomitant (DRPM:SM = 1:1), read-out: MIC concomitant
[15] = Concomitant (PAPM:SM = 1:1), read-out: MIC concomitant

Row | Structure (SMILES) | MIC (S. epidermidis IAM1296; [3]) [µg/mL] | MIC (E. coli NIHJ JC-2; [4]) [µg/mL] | MIC (E. coli ML1410; [5]) [µg/mL] | MIC (P. vurgalis OX-19; [6]) [µg/mL] | MIC (P. vulgaris GN7919; [7]) [µg/mL] | MIC (S. marcescens X 100; [8]) [µg/mL] | MIC (S. marcescens GN6473; [9]) [µg/mL] | MIC [1, 11] [µg/mL] | MIC [2, 11] [µg/mL] | MIC (S. aureus 209P; [11]) [µg/mL] | MIC (Str. pyogenes Cook; [11]) [µg/mL] | MIC (P. aeruginosa IFO3451; [12]) [µg/mL] | MIC (E. cloacae GN7471; [13]) [µg/mL] | further results
1 | C[C@@H](O)[C@H]1C(=O)N2C(C(=O)[O-])=C(SC3Cn4cnc[n+]4C3)[C@H](C)[C@H]12 (stereo partly drawn) [BIPM, biapenem] | 1 | 0.031 | 0.25 | 0.25 | 0.5 | 0.063 | 0.125 | > 32 | 4 | 0.031 | 0.008 | 0.25 | 0.063 | MIC (S. epidermidis IAM1296; IAM1296, Concomitant (BIPM:SM = 1:1), read-out: MIC concomitant): 0.031 µg/mL; MIC (E. coli NIHJ JC-2; NIHJJC2, Concomitant (BIPM:SM = 1:1), read-out: MIC concomitant): 0.031 µg/mL; MIC (E. coli ML1410; ML1410, Concomitant (BIPM:SM = 1:1), read-out: MIC concomitant): 0.063 µg/mL; MIC (P. vurgalis OX-19; OX19, Concomitant (BIPM:SM = 1:1), read-out: MIC concomitant): 0.031 µg/mL; MIC (P. vulgaris GN7919; GN7919, Concomitant (BIPM:SM = 1:1), read-out: MIC concomitant): 0.25 µg/mL; MIC (S. marcescens X 100; X100, Concomitant (BIPM:SM = 1:1), read-out: MIC concomitant): 0.063 µg/mL; MIC (S. marcescens GN6473; GN6473, Concomitant (BIPM:SM = 1:1), read-out: MIC concomitant): 0.125 µg/mL; MIC [1, 10]: 2 µg/mL; MIC [2, 10]: 0.25 µg/mL; MIC (S. aureus 209P; [10]): 0.008 µg/mL; MIC (Str. pyogenes Cook; [10]): 0.004 µg/mL; MIC (P. aeruginosa IFO3451; IFO3451, Concomitant (BIPM:SM = 1:1), read-out: MIC concomitant): 0.25 µg/mL; MIC (E. cloacae GN7471; GN7471, Concomitant (BIPM:SM = 1:1), read-out: MIC concomitant): 0.063 µg/mL
2 | C[C@@H](O)[C@H]1C(=O)N2C(C(=O)O)=C(S[C@@H]3CN[C@H](CNS(N)(=O)=O)C3)[C@H](C)[C@H]12 [DRPM, doripenem] | 0.5 | 0.016 | 0.031 | 0.031 | 0.125 | 0.031 | 0.063 | 32 | 2 | 0.016 | ≤ 0.002 | 0.5 | 0.031 | MIC (S. epidermidis IAM1296; IAM1296, Concomitant (DRPM:SM = 1:1), read-out: MIC concomitant): 0.031 µg/mL; MIC (E. coli NIHJ JC-2; NIHJJC2, Concomitant (DRPM:SM = 1:1), read-out: MIC concomitant): 0.016 µg/mL; MIC (E. coli ML1410; ML1410, Concomitant (DRPM:SM = 1:1), read-out: MIC concomitant): 0.031 µg/mL; MIC (P. vurgalis OX-19; OX19, Concomitant (DRPM:SM = 1:1), read-out: MIC concomitant): 0.031 µg/mL; MIC (P. vulgaris GN7919; GN7919, Concomitant (DRPM:SM = 1:1), read-out: MIC concomitant): 0.063 µg/mL; MIC (S. marcescens X 100; X100, Concomitant (DRPM:SM = 1:1), read-out: MIC concomitant): 0.031 µg/mL; MIC (S. marcescens GN6473; GN6473, Concomitant (DRPM:SM = 1:1), read-out: MIC concomitant): 0.063 µg/mL; MIC [1, 14]: 1 µg/mL; MIC [2, 14]: 0.25 µg/mL; MIC (S. aureus 209P; [14]): 0.004 µg/mL; MIC (Str. pyogenes Cook; [14]): ≤ 0.002 µg/mL; MIC (P. aeruginosa IFO3451; IFO3451, Concomitant (DRPM:SM = 1:1), read-out: MIC concomitant): 0.25 µg/mL; MIC (E. cloacae GN7471; GN7471, Concomitant (DRPM:SM = 1:1), read-out: MIC concomitant): 0.031 µg/mL
3 | CC(=N)N1CC[C@H](SC2=C(C(=O)O)N3C(=O)[C@H]([C@@H](C)O)[C@H]3C2)C1 [PAPM, panipenem] | 0.5 | 0.25 | 0.5 | 1 | 1 | 0.25 | 0.5 | > 32 | 0.5 | 0.031 | 0.008 | 4 | 0.25 | MIC (S. epidermidis IAM1296; IAM1296, Concomitant (PAPM:SM = 1:1), read-out: MIC concomitant): 0.016 µg/mL; MIC (E. coli NIHJ JC-2; NIHJJC2, Concomitant (PAPM:SM = 1:1), read-out: MIC concomitant): 0.063 µg/mL; MIC (E. coli ML1410; ML1410, Concomitant (PAPM:SM = 1:1), read-out: MIC concomitant): 0.125 µg/mL; MIC (P. vurgalis OX-19; OX19, Concomitant (PAPM:SM = 1:1), read-out: MIC concomitant): 0.063 µg/mL; MIC (P. vulgaris GN7919; GN7919, Concomitant (PAPM:SM = 1:1), read-out: MIC concomitant): 0.5 µg/mL; MIC (S. marcescens X 100; X100, Concomitant (PAPM:SM = 1:1), read-out: MIC concomitant): 0.125 µg/mL; MIC (S. marcescens GN6473; GN6473, Concomitant (PAPM:SM = 1:1), read-out: MIC concomitant): 0.25 µg/mL; MIC [1, 15]: 2 µg/mL; MIC [2, 15]: 0.25 µg/mL; MIC (S. aureus 209P; [15]): 0.004 µg/mL; MIC (Str. pyogenes Cook; [15]): ≤ 0.002 µg/mL; MIC (P. aeruginosa IFO3451; IFO3451, Concomitant (PAPM:SM = 1:1), read-out: MIC concomitant): 2 µg/mL; MIC (E. cloacae GN7471; GN7471, Concomitant (PAPM:SM = 1:1), read-out: MIC concomitant): 0.125 µg/mL
